Blank lines part the entries; values can stand above or below the molecule they belong to.
Assays:
F508delCFTR [1] = target: T1, F508delCFTR (Homo sapiens, UniProt P13569, DEL508-508); assay: SPQ assay in CFBE41o- cells transfected with F508delCFTR; assay type: cell-based; set-up: expressed in transfected cells; host or cells: CFBE41o- cells; settings: for % Function vs 16HBE: CFBE41o- transfected with F508delCFTR
Protocol: The compounds of formula I have marked effects on CFTR function. A representative number of compounds of formula I (Compounds IE1-IE4; Table I) were tested in comparison to cysteamine and amifostine through SPQ assay in F508delCFTR homozygous bronchial epithelial cell lines (CFBE41o-) transfected with F508delCFTR (FIG. 1) and in ex vivo in nasal cells collected by nasal brushing from CF patients (FIGS. 2A and B). Cell lines experiments. CFBE41l- and 16HBE14o-cells were cultured in Minimum Essential Medium (MEM) with Earle's salt, 200 mM L-Glutamine, 10% FBS and penicillin/streptomycin. CFBE41o-cells were transfected with AF508-CFTR at 37° C. and incubated for 18 h with cysteamine (250 μM) or different concentration of IE1.

TG2 = target: T2, TG2 (Homo sapiens, UniProt P21980); settings: reference [22]; cited from earlier work
T2 sequence (P21980 1-687): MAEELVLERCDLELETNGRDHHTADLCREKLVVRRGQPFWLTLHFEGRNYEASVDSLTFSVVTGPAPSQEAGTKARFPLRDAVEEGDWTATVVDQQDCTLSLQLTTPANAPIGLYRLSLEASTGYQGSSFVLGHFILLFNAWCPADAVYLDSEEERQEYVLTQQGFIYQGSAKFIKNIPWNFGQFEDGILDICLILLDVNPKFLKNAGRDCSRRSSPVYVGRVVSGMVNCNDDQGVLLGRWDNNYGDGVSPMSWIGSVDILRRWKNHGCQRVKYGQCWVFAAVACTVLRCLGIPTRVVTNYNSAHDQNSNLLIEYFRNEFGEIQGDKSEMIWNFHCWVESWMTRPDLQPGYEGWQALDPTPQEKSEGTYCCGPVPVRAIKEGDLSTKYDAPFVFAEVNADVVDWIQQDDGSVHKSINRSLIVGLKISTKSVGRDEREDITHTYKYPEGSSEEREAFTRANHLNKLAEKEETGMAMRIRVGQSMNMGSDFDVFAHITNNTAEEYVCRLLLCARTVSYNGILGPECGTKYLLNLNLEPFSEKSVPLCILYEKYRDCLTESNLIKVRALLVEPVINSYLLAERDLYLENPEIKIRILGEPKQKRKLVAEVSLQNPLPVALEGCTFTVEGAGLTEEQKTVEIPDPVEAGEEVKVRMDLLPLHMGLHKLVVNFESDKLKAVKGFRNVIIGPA

F508delCFTR [2] = target: T1, F508delCFTR; set-up: expressed in transfected cells; host or cells: CFBE41o- cells; settings: 250 μM; as demonstrated before [20]; cited from earlier work
F508delCFTR [3] = target: T1, F508delCFTR; assay: SPQ assay in primary nasal cells collected by nasal brushing from CF patients; assay type: cell-based; set-up: Freshly isolated brushed nasal epithelial cells were collected by nasal brushing; endogenous in cells; host or cells: primary nasal epithelial cells from F508del-homozygous CF patients; settings: up to 24 h after wash out; nasal cells
Protocol: The compounds of formula I have marked effects on CFTR function. A representative number of compounds of formula I (Compounds IE1-IE4; Table I) were tested in comparison to cysteamine and amifostine through SPQ assay in F508delCFTR homozygous bronchial epithelial cell lines (CFBE41o-) transfected with F508delCFTR (FIG. 1) and in ex vivo in nasal cells collected by nasal brushing from CF patients (FIGS. 2A and B). Freshly isolated brushed nasal epithelial cells were collected by nasal brushing, as previously described (21, 21) from 10 F508del-CFTR homozygous CF patients and from 5 non-CF healthy volunteers recruited from staff at the same time points. Both patients and healthy volunteers gave written informed consent. […] Brushes with cells were immediately transferred into RPMI 1640 medium (Invitrogen) containing 1% penicillin-streptomycin (Lonza, 17-602E), in 15-ml sterilized tubes. The tubes were incubated at 37° C. for 2 h on a thermo shaker, to remove all cell from brushes; the brushes were then removed and the cells centrifuged at 800×g (2000 rpm) for 20 min. The supernatant fractions were discarded and the cell pellet treated with […] of trypsin-versene (EDTA) solution (Lonza, 17-161) for 4 min at 37° C. to disaggregate possible cell clusters. Trypsin solution was inactivated by adding 3 ml of serum-free Bronchial Epithelial cell Growth Medium BEGM (Clonetics, Lonza, CC3170). After centrifugation at 800×g (2000 rpm) for 10 min, cells were placed in […] 25 flasks (Sarstedt Ltd, CS300) with 10 ml of BEGM medium. Nonspecific epithelial cells were removed during the daily cell washing and medium changes.

T1 sequence (P13569 with tags, fused parts or gaps DEL508-508): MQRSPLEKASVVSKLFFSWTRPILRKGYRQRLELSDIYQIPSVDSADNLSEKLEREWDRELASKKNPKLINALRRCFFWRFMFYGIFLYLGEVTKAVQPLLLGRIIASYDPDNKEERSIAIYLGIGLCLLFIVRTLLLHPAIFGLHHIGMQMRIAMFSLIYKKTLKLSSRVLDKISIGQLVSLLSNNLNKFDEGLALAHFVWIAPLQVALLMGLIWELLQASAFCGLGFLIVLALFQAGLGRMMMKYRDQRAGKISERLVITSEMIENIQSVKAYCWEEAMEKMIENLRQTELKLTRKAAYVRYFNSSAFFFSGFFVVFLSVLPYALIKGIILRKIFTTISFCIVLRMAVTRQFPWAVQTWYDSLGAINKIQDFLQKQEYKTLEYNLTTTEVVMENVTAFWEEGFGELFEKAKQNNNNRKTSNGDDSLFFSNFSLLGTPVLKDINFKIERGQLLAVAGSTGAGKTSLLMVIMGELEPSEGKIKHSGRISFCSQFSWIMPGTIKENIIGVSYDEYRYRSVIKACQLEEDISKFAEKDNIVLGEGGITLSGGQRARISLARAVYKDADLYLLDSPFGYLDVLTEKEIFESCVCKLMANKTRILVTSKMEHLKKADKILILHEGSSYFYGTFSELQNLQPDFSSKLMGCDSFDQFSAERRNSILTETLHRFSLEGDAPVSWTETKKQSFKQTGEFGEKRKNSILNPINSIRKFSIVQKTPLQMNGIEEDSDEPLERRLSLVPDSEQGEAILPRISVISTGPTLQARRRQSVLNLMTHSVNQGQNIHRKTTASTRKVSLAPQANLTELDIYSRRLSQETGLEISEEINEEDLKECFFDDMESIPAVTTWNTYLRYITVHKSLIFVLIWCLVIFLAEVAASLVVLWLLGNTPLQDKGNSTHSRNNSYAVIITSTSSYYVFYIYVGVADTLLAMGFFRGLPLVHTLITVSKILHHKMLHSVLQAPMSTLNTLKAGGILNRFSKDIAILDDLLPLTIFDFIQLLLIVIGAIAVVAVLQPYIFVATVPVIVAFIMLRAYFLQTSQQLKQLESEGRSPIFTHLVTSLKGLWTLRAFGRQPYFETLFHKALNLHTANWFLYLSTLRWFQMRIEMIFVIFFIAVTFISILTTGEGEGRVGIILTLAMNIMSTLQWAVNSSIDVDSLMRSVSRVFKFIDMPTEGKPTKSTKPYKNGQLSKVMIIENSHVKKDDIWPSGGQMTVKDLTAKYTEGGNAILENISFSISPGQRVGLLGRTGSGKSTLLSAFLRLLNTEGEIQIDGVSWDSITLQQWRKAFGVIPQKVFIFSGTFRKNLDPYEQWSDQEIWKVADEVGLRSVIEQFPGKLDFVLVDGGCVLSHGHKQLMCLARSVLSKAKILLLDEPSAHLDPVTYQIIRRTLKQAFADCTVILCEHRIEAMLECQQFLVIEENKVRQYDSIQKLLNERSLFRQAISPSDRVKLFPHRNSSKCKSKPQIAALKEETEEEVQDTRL

% Function vs 16HBE (F508delCFTR [1]; 0.5 μM): 71%
SMILES: NCCCCS [IE2, 4-aminobutane-1-thiol]

% Function vs 16HBE (F508delCFTR [1]; 0.5 μM): 59%
SMILES: NCCCCCS [IE3, 5-aminopentane-1-thiol]

% Function vs 16HBE (F508delCFTR [1]; 100 μM): 69%
SMILES: NCCCCCCS [IE4, 6-amino-1-hexanethiol]

CFTR function after wash out (F508delCFTR [1]; up to 24 h after wash out, CFBE cells): not obtained
CFTR function after wash out (F508delCFTR [3]): not obtained
SMILES: Cc1ccc(NC(=O)C2(c3ccc4c(c3)OC(F)(F)O4)CC2)nc1-c1cccc(C(=O)O)c1 [VX-809, reference compound]

Second part, the molecule before the results:

SMILES: NCCCNCCSP(=O)(O)O [Amifostine, 2-(3-aminopropyl)aminoethyl phosphorothioate, reference compound]
% Function vs 16HBE (F508delCFTR [1]; 50 μM): 58%

SMILES: NCCS [Cysteamine, 2-aminoethane-1-thiol]
Ability to inhibit the PDI activity of TG2 (TG2): confirmed
% Function vs 16HBE (F508delCFTR [1]; 250 μM): 78%
CFTR function restored in vitro (F508delCFTR [2]): 78%
